Experimental data reported in patent publication US9963467B2, “Boronic acid derivatives and therapeutic uses thereof” (Rempex Pharmaceuticals, Inc., priority 2014, dated 2018).

Assays:
KP1005 (CTX-M-14) [1] = experiment: Aztreonam potentiation (MPC@4), KP1005; type: cell-based; conditions: BLI with aztreonam at 4 μg/mL
KP1009 (CTX-M-15) [2] = experiment: organism not typed; type: cell-based
ec302 (TEM-10) [3] = experiment: Aztreonam potentiation (MPC@4), ec302; type: cell-based; conditions: BLI with aztreonam at 4 μg/mL
KP1004 (KPC-2) [4] = experiment: Aztreonam potentiation (MPC@4), KP1004; type: cell-based; conditions: BLI with aztreonam at 4 μg/mL
ECL1002 [5] = experiment: Aztreonam potentiation (MPC@4), ECL1002; type: cell-based; conditions: BLI with aztreonam at 4 μg/mL
EC1010 (CMY-6) [6] = experiment: organism not typed; type: cell-based
KP1005 (CTX-M-14) [7] = experiment: Tigemonam potentiation (MPC@4), KP1005; type: cell-based; conditions: BLI with tigemonam at 4 μg/mL
KP1009 (CTX-M-15) [8] = experiment: Tigemonam potentiation (MPC@4), KP1009; type: cell-based; conditions: BLI with tigemonam at 4 μg/mL
ec308 (SHV-5) = experiment: Tigemonam potentiation (MPC@4), ec308; type: cell-based
KP1010 (SHV-12) = experiment: Tigemonam potentiation (MPC@4), KP1010; type: cell-based
ec302 (TEM-10) [9] = experiment: Tigemonam potentiation (MPC@4), ec302; type: cell-based
ECL1002 [10] = experiment: Tigemonam potentiation (MPC@4), ECL1002; type: cell-based; conditions: BLI with tigemonam at 4 μg/mL
EC1010 (CMY-6) [11] = experiment: Tigemonam potentiation (MPC@4), EC1010; type: cell-based; conditions: BLI with tigemonam at 4 μg/mL
CTX-M-14 = CTX-M-14 (Escherichia coli, UniProt Q9L5C7); experiment: Ki, nitrocefin cleavage by purified enzyme, CTX-M-14; type: biochemical; conditions: nitrocefin reporter substrate; read-out: Ki (CTX-M-14, NCF)
How it was run: (§1)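 Steps: enzyme plus inhibitor dilutions in reaction buffer; 10 min at room temperature; add nitrocefin; read absorbance at 490 nm each 10 sec for 10 min.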

SHV-12 = SHV-12 (Klebsiella pneumoniae, UniProt P0AD64, E235K/G234S/L31Q); experiment: Ki, nitrocefin cleavage by purified enzyme, SHV-12; type: biochemical; conditions: nitrocefin reporter substrate; read-out: Ki (SHV-12, NCF)
How it was run: as §1

KPC-2 = KPC-2 (Klebsiella pneumoniae, UniProt Q9F663); experiment: Ki, nitrocefin cleavage by purified enzyme, KPC-2; type: biochemical; conditions: nitrocefin reporter substrate; read-out: Ki (KPC-2, NCF)
How it was run: as §1

P99 = P99 (Enterobacter cloacae, UniProt P05364); experiment: Ki, nitrocefin cleavage by purified enzyme, P99; type: biochemical; conditions: nitrocefin reporter substrate; read-out: Ki (P99, NCF)
How it was run: as §1

Pa AmpC = Pa AmpC (Pseudomonas aeruginosa, UniProt P24735); experiment: Ki, nitrocefin cleavage by purified enzyme, Pa AmpC; type: biochemical; conditions: nitrocefin reporter substrate; read-out: Ki (Pa AmpC, NCF)
How it was run: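 Steps: mix purified enzyme with inhibitor dilutions in reaction buffer; incubate 10 min, room temperature; add nitrocefin; read 490 nm every 10 sec for 10 min; derive Ki.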

OXA-48 = OXA-48 (Klebsiella pneumoniae, UniProt Q6XEC0); experiment: Ki, nitrocefin cleavage by purified enzyme, OXA-48; type: biochemical; conditions: nitrocefin reporter substrate; read-out: Ki (OXA-48, NCF)
How it was run: as §1

KP1004 (KPC-2) [12] = experiment: Biapenem potentiation (MPC@1), KP1004; conditions: BLI with biapenem at 1 μg/mL
KP1086 (OXA-48) = experiment: Biapenem potentiation (MPC@1), KP1086; conditions: BLI with biapenem at 1 μg/mL
[13] = Monomer content of pH adjusted aqueous solutions (LC-UV); type: physicochemical; conditions: 1 mg/mL aqueous salt solution, pH adjusted to 7.6 to 8, LC-UV
How it was run: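 Aqueous solutions at 1.00, 10.0 or 100 mg/mL (active fraction) brought to pH 7.6–8 with acid or base, compound fully dissolved. Injected within half an hour of preparation onto C18 reversed-phase LC (0.1% TFA water / 0.085% TFA methanol gradient); UV detection at 220, 254 and 300 nm.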

Chain of Pa AmpC (P24735 27-397): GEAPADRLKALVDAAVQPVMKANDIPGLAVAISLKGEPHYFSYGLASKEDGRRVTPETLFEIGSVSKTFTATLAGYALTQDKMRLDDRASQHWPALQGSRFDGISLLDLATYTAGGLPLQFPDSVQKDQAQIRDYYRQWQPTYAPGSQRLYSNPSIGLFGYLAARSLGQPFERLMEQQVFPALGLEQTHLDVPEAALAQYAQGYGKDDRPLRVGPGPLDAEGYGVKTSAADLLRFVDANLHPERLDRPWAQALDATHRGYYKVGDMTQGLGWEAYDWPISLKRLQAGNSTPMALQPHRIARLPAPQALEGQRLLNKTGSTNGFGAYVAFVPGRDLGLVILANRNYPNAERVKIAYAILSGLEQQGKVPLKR
Chain of OXA-48 (Q6XEC0 23-265, looked up, species assumed): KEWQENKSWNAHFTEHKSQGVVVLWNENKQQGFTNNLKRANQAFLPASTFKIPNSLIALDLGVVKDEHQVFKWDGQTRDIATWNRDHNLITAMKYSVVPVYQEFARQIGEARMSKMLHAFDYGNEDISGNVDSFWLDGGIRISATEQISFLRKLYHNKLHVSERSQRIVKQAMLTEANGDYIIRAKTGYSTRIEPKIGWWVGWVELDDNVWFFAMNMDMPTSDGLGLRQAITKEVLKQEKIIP
Chain of SHV-12 (P0AD64 22-286 L31Q/G234S/E235K): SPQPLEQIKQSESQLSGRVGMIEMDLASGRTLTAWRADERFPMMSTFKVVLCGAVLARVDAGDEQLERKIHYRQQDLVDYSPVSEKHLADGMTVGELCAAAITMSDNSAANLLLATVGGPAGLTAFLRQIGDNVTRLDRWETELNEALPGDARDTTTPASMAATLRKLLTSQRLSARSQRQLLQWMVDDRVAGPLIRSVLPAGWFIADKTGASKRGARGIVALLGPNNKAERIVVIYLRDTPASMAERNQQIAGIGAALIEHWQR
Chain of CTX-M-14 (Q9L5C7 29-291): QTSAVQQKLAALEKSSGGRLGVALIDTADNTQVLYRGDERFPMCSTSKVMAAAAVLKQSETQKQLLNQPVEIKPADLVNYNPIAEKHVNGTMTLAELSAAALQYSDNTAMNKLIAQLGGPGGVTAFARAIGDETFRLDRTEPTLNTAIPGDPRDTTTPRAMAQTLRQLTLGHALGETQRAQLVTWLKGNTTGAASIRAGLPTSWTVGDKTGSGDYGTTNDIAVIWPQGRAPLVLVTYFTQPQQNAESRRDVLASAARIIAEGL
Chain of KPC-2 (Q9F663 25-293, looked up, species assumed): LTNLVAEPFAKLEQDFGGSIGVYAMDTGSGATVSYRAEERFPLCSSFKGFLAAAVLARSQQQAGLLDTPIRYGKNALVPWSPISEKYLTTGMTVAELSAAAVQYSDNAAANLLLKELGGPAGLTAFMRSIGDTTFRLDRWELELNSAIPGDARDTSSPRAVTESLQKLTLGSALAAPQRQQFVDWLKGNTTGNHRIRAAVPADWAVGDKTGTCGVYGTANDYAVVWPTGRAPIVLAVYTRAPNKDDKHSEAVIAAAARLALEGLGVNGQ
Chain of P99 (P05364 21-381): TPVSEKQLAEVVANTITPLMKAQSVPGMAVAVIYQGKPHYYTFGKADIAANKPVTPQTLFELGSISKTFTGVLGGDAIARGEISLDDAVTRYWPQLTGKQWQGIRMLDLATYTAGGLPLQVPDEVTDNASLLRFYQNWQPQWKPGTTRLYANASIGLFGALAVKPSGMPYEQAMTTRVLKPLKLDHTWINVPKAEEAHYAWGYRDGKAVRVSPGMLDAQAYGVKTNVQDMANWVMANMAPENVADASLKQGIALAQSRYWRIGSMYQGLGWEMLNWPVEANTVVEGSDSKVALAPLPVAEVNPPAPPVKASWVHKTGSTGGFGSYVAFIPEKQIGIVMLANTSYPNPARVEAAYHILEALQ

Compound | AZT MPC4 CTX-M-14 KP1005 (KP1005 (CTX-M-14) [1]) | AZT MPC4 CTX-M-15 KP1009 (KP1009 (CTX-M-15) [2]) | AZT MPC4 TEM-10 ec302 (ec302 (TEM-10) [3]) | AZT MPC4 KPC-2 KP1004 (KP1004 (KPC-2) [4]) | AZT MPC4 ECL1002 (ECL1002 [5]) | AZT MPC4 CMY-6 EC1010 (EC1010 (CMY-6) [6]) | TIG MPC4 CTX-M-14 KP1005 (KP1005 (CTX-M-14) [7]) | TIG MPC4 CTX-M-15 KP1009 (KP1009 (CTX-M-15) [8]) | TIG MPC4 SHV-5 ec308 (ec308 (SHV-5)) | TIG MPC4 SHV-12 KP1010 (KP1010 (SHV-12)) | TIG MPC4 TEM-10 ec302 (ec302 (TEM-10) [9]) | TIG MPC4 ECL1002 (ECL1002 [10]) | TIG MPC4 CMY-6 EC1010 (EC1010 (CMY-6) [11]) | Ki (CTX-M-14) | Ki (SHV-12) | Ki (KPC-2) | Ki (P99) | Ki (Pa AmpC) | Ki (OXA-48) | BPM MPC1 KP1004 KPC-2 (KP1004 (KPC-2) [12]) | also measured
CS(=O)(=O)CC(=O)N[C@H]1Cc2ccc(F)c(C(=O)O)c2OB1O [Compound 9, (R)-7-fluoro-2-hydroxy-3-(2-(methylsulfonyl)acetamido)-3,4-dihydro-2H-benzo[e][1,2]oxaborinine-8-carboxylic acid] | Y (MIC of 1 μg/mL to 10 μg/mL) | Y (key: X: MIC of less than 1 ng/mL; Y: MIC of 1 μg/mL to 10 μg/mL; Z: MIC of greater than 10 μg/mL) | Y (MIC of 1 μg/mL to 10 μg/mL) | Y (MIC of 1 μg/mL to 10 μg/mL) | Y (MIC of 1 μg/mL to 10 μg/mL) | Y (key: X: MIC of less than 1 ng/mL; Y: MIC of 1 μg/mL to 10 μg/mL; Z: MIC of greater than 10 μg/mL) | Y (MIC of 1 μg/mL to 10 μg/mL) | Y (MIC of 1 μg/mL to 10 μg/mL) | X (key: X: MIC of less than 1 μg/mL; Y: MIC of 1 μg/mL to 10 μg/mL; Z: MIC of greater than 10 μg/mL) | X (key: X: MIC of less than 1 μg/mL; Y: MIC of 1 μg/mL to 10 μg/mL; Z: MIC of greater than 10 μg/mL) | Z (key: X: MIC of less than 1 ng/mL; Y: MIC of 1 μg/mL to 10 μg/mL; Z: MIC of greater than 10 μg/mL) | X (MIC of less than 1 μg/mL) | X (MIC of less than 1 μg/mL) | 1 to 10 nM | < 1 nM | > 10 nM | > 10 nM | > 10 nM | > 10 nM | X (MIC of less than 1 μg/mL) | BPM MPC1 OXA-48 KP1086 (KP1086 (OXA-48)): Z (MIC of greater than 10 μg/mL)
CSCC(=O)N[C@H]1Cc2ccc(Sc3nnc(N)s3)c(C(=O)O)c2OB1O [Compound 21, (R)-7-(5-amino-1,3,4-thiadiazol-2-ylthio)-2-hydroxy-3-(2-(methylthio)acetamido)-3,4-dihydro-2H-benzo[e][1,2]oxaborinine-8-carboxylic acid] | Y (MIC of 1 μg/mL to 10 μg/mL) | Y (key: X: MIC of less than 1 ng/mL; Y: MIC of 1 μg/mL to 10 μg/mL; Z: MIC of greater than 10 μg/mL) | Y (MIC of 1 μg/mL to 10 μg/mL) | Y (MIC of 1 μg/mL to 10 μg/mL) | Y (MIC of 1 μg/mL to 10 μg/mL) | Y (key: X: MIC of less than 1 ng/mL; Y: MIC of 1 μg/mL to 10 μg/mL; Z: MIC of greater than 10 μg/mL) | Y (MIC of 1 μg/mL to 10 μg/mL) | Y (MIC of 1 μg/mL to 10 μg/mL) | X (key: X: MIC of less than 1 μg/mL; Y: MIC of 1 μg/mL to 10 μg/mL; Z: MIC of greater than 10 μg/mL) | X (key: X: MIC of less than 1 μg/mL; Y: MIC of 1 μg/mL to 10 μg/mL; Z: MIC of greater than 10 μg/mL) | Y (key: X: MIC of less than 1 ng/mL; Y: MIC of 1 μg/mL to 10 μg/mL; Z: MIC of greater than 10 μg/mL) | Y (MIC of 1 μg/mL to 10 μg/mL) | Y (MIC of 1 μg/mL to 10 μg/mL) | < 1 nM | < 1 nM | > 10 nM | > 10 nM | > 10 nM | < 1 nM | Y (MIC of 1 μg/mL to 10 μg/mL) | % Monomer in 1 mg/mL salt solution [13]: 98.1%; BPM MPC1 OXA-48 KP1086 (KP1086 (OXA-48)): Z (MIC of greater than 10 μg/mL)
CSCC(=O)N[C@H]1Cc2ccc(OCC(=O)O)c(C(=O)O)c2OB1O [Compound 33, (R)-7-(carboxymethoxy)-2-hydroxy-3-(2-(methylthio)acetamido)-3,4-dihydro-2H-benzo[e][1,2]oxaborinine-8-carboxylic acid] | Y (MIC of 1 μg/mL to 10 μg/mL) | Y (key: X: MIC of less than 1 ng/mL; Y: MIC of 1 μg/mL to 10 μg/mL; Z: MIC of greater than 10 μg/mL) | Y (MIC of 1 μg/mL to 10 μg/mL) | Y (MIC of 1 μg/mL to 10 μg/mL) | Y (MIC of 1 μg/mL to 10 μg/mL) | Y (key: X: MIC of less than 1 ng/mL; Y: MIC of 1 μg/mL to 10 μg/mL; Z: MIC of greater than 10 μg/mL) | Y (MIC of 1 μg/mL to 10 μg/mL) | Y (MIC of 1 μg/mL to 10 μg/mL) | Y (key: X: MIC of less than 1 ng/mL; Y: MIC of 1 μg/mL to 10 μg/mL; Z: MIC of greater than 10 μg/mL) | X (key: X: MIC of less than 1 μg/mL; Y: MIC of 1 μg/mL to 10 μg/mL; Z: MIC of greater than 10 μg/mL) | Z (key: X: MIC of less than 1 ng/mL; Y: MIC of 1 μg/mL to 10 μg/mL; Z: MIC of greater than 10 μg/mL) | Y (MIC of 1 μg/mL to 10 μg/mL) | Y (MIC of 1 μg/mL to 10 μg/mL) | < 1 nM | < 1 nM | > 10 nM | > 10 nM | > 10 nM | < 1 nM | X (MIC of less than 1 μg/mL) | BPM MPC1 OXA-48 KP1086 (KP1086 (OXA-48)): Z (MIC of greater than 10 μg/mL)
CSCC(=O)N[C@H]1Cc2ccc(Sc3nncn3C)c(C(=O)O)c2OB1O [Compound 35, (R)-2-hydroxy-7-(4-methyl-4H-1,2,4-triazol-3-ylthio)-3-(2-(methylthio)acetamido)-3,4-dihydro-2H-benzo[e][1,2]oxaborinine-8-carboxylic acid] | Y (MIC of 1 μg/mL to 10 μg/mL) | Y (key: X: MIC of less than 1 ng/mL; Y: MIC of 1 μg/mL to 10 μg/mL; Z: MIC of greater than 10 μg/mL) | Y (MIC of 1 μg/mL to 10 μg/mL) | Y (MIC of 1 μg/mL to 10 μg/mL) | Y (MIC of 1 μg/mL to 10 μg/mL) | Y (key: X: MIC of less than 1 ng/mL; Y: MIC of 1 μg/mL to 10 μg/mL; Z: MIC of greater than 10 μg/mL) | Y (MIC of 1 μg/mL to 10 μg/mL) | Y (MIC of 1 μg/mL to 10 μg/mL) | X (key: X: MIC of less than 1 μg/mL; Y: MIC of 1 μg/mL to 10 μg/mL; Z: MIC of greater than 10 μg/mL) | X (key: X: MIC of less than 1 μg/mL; Y: MIC of 1 μg/mL to 10 μg/mL; Z: MIC of greater than 10 μg/mL) | Y (key: X: MIC of less than 1 ng/mL; Y: MIC of 1 μg/mL to 10 μg/mL; Z: MIC of greater than 10 μg/mL) | Y (MIC of 1 μg/mL to 10 μg/mL) | Y (MIC of 1 μg/mL to 10 μg/mL) | < 1 nM | < 1 nM | > 10 nM | > 10 nM | > 10 nM | < 1 nM | X (MIC of less than 1 μg/mL) | BPM MPC1 OXA-48 KP1086 (KP1086 (OXA-48)): Z (MIC of greater than 10 μg/mL)
